One series has as its target D(2) dopamine receptor (Homo sapiens, UniProt P14416). Kind of series: biochemical.
The next series concerns the target D(3) dopamine receptor (Homo sapiens, UniProt P35462). As to the kind of experiment: biochemical.
A short description of series [1]: Apparent permeability assessed by Caco-2 layer assay. Conditions: human. Format: ADME, cell-based. In general terms: Caco-2 cells form a polarised layer with tight junctions and transporters.
Series [2] is described as follows: Partition coefficient measured. In kind it is physicochemical. As to conditions: octanol/water.
Series [3] in a line: Distribution coefficient at pH 7.4. In kind it is physicochemical. Conditions: octanol/water.

Chain of D(3) dopamine receptor (P35462 whole entry): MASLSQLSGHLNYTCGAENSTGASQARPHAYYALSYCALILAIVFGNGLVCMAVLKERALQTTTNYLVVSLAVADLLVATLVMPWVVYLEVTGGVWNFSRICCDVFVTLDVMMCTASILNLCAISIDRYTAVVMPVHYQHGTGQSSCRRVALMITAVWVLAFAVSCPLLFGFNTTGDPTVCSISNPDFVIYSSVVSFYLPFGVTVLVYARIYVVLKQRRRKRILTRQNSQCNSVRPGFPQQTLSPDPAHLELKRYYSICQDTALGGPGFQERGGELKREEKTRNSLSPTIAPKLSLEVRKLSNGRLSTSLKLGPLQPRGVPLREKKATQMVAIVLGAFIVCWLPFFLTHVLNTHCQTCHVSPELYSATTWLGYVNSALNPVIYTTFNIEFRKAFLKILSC
Chain of D(2) dopamine receptor (P14416 whole entry): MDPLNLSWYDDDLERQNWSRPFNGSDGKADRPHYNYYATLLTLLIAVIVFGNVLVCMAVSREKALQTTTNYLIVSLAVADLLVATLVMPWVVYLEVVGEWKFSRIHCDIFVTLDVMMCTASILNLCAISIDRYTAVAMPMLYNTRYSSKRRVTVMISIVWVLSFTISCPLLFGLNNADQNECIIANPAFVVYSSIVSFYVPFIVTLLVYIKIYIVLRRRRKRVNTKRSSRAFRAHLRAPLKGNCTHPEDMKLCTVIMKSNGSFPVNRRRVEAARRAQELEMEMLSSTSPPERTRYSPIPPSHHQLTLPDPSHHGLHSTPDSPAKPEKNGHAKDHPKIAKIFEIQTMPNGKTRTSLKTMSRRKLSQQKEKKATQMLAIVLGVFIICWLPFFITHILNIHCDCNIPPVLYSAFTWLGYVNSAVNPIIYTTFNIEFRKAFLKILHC
Description for D(2) dopamine receptor: Displacement of [3H]spiroperidol from cloned human dopamine receptor D2(long) expressed in rat C6 glioma cells
Description for D(3) dopamine receptor: Displacement of [3H]spiroperidol from cloned human dopamine receptor D3 expressed in CHO cells

Regarding `COc1ccccc1N1CCN(CCCCNC(=O)c2cc3ccccc3oc2=O)CC1`, the inhibition constant Ki on D(2) dopamine receptor was determined as 0.146 µM; at D(3) dopamine receptor, 0.0601 µM.
For the compound `COc1ccc2onc(N3CCN(CCCCNC(=O)c4ccc(-n5ccnc5)cc4)CC3)c2c1`, the Papp in series [1] was 6.56 ×10⁻⁶ cm/s. Moreover, the figures for the Ki on D(2) dopamine receptor and on D(3) dopamine receptor were > 0.75 µM and 0.0226 µM, respectively. The logP in series [2] was determined as 2.63. This compound also registered a logD in series [3] of 2.42.
In the case of `COc1ccc2onc(N3CCN(CCCCNC(=O)c4cccc(N5CCOCC5)c4)CC3)c2c1`, the results for the inhibition constant (Ki) on D(2) dopamine receptor and at D(3) dopamine receptor were > 1 µM and 1.44 µM, respectively.
Turning to `COc1ccc2onc(N3CCN(CCCCNC(=O)c4cc(-c5ccco5)n[nH]4)CC3)c2c1`, in series [1], the Papp is 7.39 ×10⁻⁶ cm/s. The Ki at D(2) dopamine receptor is > 0.75 µM; on D(3) dopamine receptor it was 0.0214 µM. The same compound showed a logP in series [2] of 2.98. The same compound registered a logD in series [3] of 2.43.
Take `COc1ccc2onc(N3CCN(CCCCNC(=O)c4ccc5nccnc5c4)CC3)c2c1`: the Ki on D(2) dopamine receptor is > 0.75 µM; at D(3) dopamine receptor, 0.22 µM.
In the case of `COc1ccc2onc(N3CCN(CCCCNC(=O)c4cccc(-n5ccnc5)c4)CC3)c2c1`, the Ki at D(2) dopamine receptor is > 1 µM; at D(3) dopamine receptor, 5.54 µM.
The corresponding values for `COc1ccc2onc(N3CCN(CCCCNC(=O)c4cc5ccccc5oc4=O)CC3)c2c1` are > 0.75 µM and > 2.7 µM.
In the case of `COc1ccc2onc(N3CCN(CCCCNC(=O)c4cccc(-c5ncccn5)c4)CC3)c2c1`, the results for the Ki at D(2) dopamine receptor and on D(3) dopamine receptor were > 1 µM and 1.14 µM, respectively.
In the same order, the values of `COc1ccc2onc(N3CCN(CCCCNC(=O)c4cc5cccc(OC)c5o4)CC3)c2c1` are > 0.75 µM and 0.098 µM.
For `COc1ccc2onc(N3CCN(CCCCNC(=O)c4ccc5nonc5c4)CC3)c2c1`, the Ki at D(2) dopamine receptor was > 0.75 µM; on D(3) dopamine receptor, 0.085 µM.
In the case of `COc1ccccc1N1CCN(CCCCNC(=O)c2ccc(-n3ccnc3)cc2)CC1`, the Ki is 0.0272 µM at D(2) dopamine receptor and 0.00479 µM on D(3) dopamine receptor.
In the same order, the values of `COc1ccccc1N1CCN(CCCCNC(=O)c2ccc3nccnc3c2)CC1` are 0.179 µM and 0.0779 µM.
On to `COc1ccc2onc(N3CCN(CCCCNC(=O)c4ccc(N5CCOCC5)cc4)CC3)c2c1`, for which the Papp in series [1] turned out to be 36.3 ×10⁻⁶ cm/s. Moreover, the Ki was > 0.75 µM at D(2) dopamine receptor and 0.038 µM at D(3) dopamine receptor. The compound also showed a logP in series [2] of 3.16. Also, in series [3], the logD amounted to 2.96.
Consider `COc1ccc2oc(N3CCN(CCCCNC(=O)c4cc5cccc(OC)c5o4)CC3)nc2c1`, for which the figures for the Ki at D(2) dopamine receptor and at D(3) dopamine receptor were > 0.75 µM and > 8.5 µM, respectively.
Regarding `COc1ccccc1N1CCN(CCCCNC(=O)c2ccc3nonc3c2)CC1`, the Ki at D(2) dopamine receptor was > 1 µM; on D(3) dopamine receptor it was 0.0585 µM.
As for `COc1cccc2cc(C(=O)NCCCCN3CCN(c4[nH]nc5ccccc45)CC3)oc12`, the Ki at D(2) dopamine receptor worked out at 0.0566 µM; on D(3) dopamine receptor, 0.127 µM.
Take `COc1ccccc1N1CCN(CCCCNC(=O)c2ccc(N3CCOCC3)cc2)CC1`: the Ki at D(2) dopamine receptor worked out at 0.141 µM; on D(3) dopamine receptor it was 0.0239 µM.
On to `COc1ccc2onc(N3CCN(CCCCNC(=O)c4ccc5c(c4)OCO5)CC3)c2c1`, for which the Ki is > 0.75 µM at D(2) dopamine receptor and 0.118 µM on D(3) dopamine receptor.
For `COc1ccc2ccnc(N3CCN(CCCCNC(=O)c4cc5cccc(OC)c5o4)CC3)c2c1`, at D(3) dopamine receptor, the Ki was found to be 0.102 µM.
With `COc1ccccc1N1CCN(CCCCNC(=O)c2ccc3c(c2)OCO3)CC1`, the Ki on D(2) dopamine receptor came to 0.0862 µM; on D(3) dopamine receptor it was 0.0147 µM.
With `COc1ccc2onc(N3CCN(CCCCNC(=O)c4cccc(-c5noc(C)n5)c4)CC3)c2c1`, the Ki on D(2) dopamine receptor was > 1 µM; at D(3) dopamine receptor, 1.28 µM.
For the compound `COc1cccc2cc(C(=O)NCCCCN3CCN(c4cccc5nccnc45)CC3)oc12`, the results for the Ki at D(2) dopamine receptor and at D(3) dopamine receptor were 1.25 µM and 0.262 µM, respectively.
With `COc1ccccc1N1CCN(CCCCNC(=O)c2cc3cccc(OC)c3o2)CC1`, the Ki at D(2) dopamine receptor turned out to be 0.369 µM; on D(3) dopamine receptor it was 0.0255 µM.
Turning to `COc1cccc2cc(C(=O)NCCCCN3CCN(c4nc5ccccc5[nH]4)CC3)oc12`, the inhibitory constant (Ki) is > 0.75 µM at D(2) dopamine receptor and > 8.5 µM at D(3) dopamine receptor.
In the case of `COc1ccccc1N1CCN(CCCCNC(=O)c2cc(-c3ccco3)[nH]n2)CC1`, the Ki at D(2) dopamine receptor is 0.13 µM; at D(3) dopamine receptor, 0.0193 µM.

As usually defined, the Ki is a dissociation constant, usually derived from enzyme kinetics or from competition with a known ligand. Lower therefore signals higher affinity. As a reminder, the Papp is the rate of passage across a membrane or cell layer, normalised by area and donor concentration. Usually logP stands for a log measure of how a compound divides between an organic and an aqueous phase. High values mean higher lipophilicity, low ones lower lipophilicity. One may read the logD as the decadic logarithm of the distribution of all forms, ionised or not, between an organic phase and buffer at a given pH.

Source of the values: ChEMBL document CHEMBL1148573, “Design, synthesis, and binding affinities of potential positron emission tomography (PET) ligands for visualization of brain dopamine D3 receptors” (J Med Chem, 2006).
